For one compound, Kd results are on record in ChEMBL document CHEMBL1135331, “Synthesis and characterization of a new RXR agonist based on the 6-tert-butyl-1,1-dimethylindanyl structure” (Bioorg Med Chem Lett, 2002).

Structures are written as SMILES.

In this assay the target is T1, Retinoic acid receptor RXR-alpha (Homo sapiens, UniProt P19793).
T1 sequence (P19793 whole entry): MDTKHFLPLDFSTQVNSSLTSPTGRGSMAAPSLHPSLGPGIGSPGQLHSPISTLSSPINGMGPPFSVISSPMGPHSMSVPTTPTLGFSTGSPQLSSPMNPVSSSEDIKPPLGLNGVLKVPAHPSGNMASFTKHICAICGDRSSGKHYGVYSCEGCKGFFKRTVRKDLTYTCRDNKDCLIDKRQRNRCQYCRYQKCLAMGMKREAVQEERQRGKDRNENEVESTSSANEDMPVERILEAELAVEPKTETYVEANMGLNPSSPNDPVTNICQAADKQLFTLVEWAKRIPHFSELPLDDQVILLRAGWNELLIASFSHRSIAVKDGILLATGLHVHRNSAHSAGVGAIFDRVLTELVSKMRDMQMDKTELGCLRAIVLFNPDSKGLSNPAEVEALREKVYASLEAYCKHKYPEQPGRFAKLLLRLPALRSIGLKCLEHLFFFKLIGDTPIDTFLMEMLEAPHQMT
The assay is described as follows: Dissociation constant for binding to Retinoic acid receptor RXR-alpha.

`C=C(/C=C/C=C/C(=O)O)c1cc(C(C)(C)C)cc2c1CCC2(C)C`: binding was characterised by a dissociation constant (Kd) of 0.22 µM.
